Entries after “also recorded” stand apart in the source; their conditions may differ.
Columns and labels:
[1] = molecular target: T1, ABCA2 (Homo sapiens, UniProt Q9BZC7); experiment: Correlation of ABCA2 expression with drug sensitivity across the NCI-60; type: cell-based; details: Pearson correlation of ABCA2 expression with sensitivity of the 60 cell lines; 1429 compounds; inverse, p < 0.0001
T1 construct: profiled in 60 diverse cancer cell lines (the NCI-60) using real-time RT-PCR; endogenous in cells; host or cells: NCI-60 human cancer cell lines
Description: (§2) Expression levels are measured by real-time quantitative RT-PCR using the LightCycler RNA Amplification SYBR Green kit and a LightCycler machine (Roche Biochemicals, Indianapolis, Ind.). […] When possible, the amplicons are designed to encompass exon-intron boundaries to avoid amplification of genomic DNA. Since the Syber Green assay detects accumulation of double stranded DNA, primers are selected (from a battery consisting of about 200 primers) that amplified a single product of the correct size.
(§3) RT-PCR is carried out on 150 ng total RNA, in the presence of 250 nM specific primers. […]
(§4) During PCR amplification, fluorescence emission is measured and recorded in real time by the LightCycler. Crossing point values are calculated, using the LightCycler software package, by the Fit Points analysis method, with baseline fluorescence set at 1. The SyberGreen assay measures accumulation of double-stranded products, and the appearance of primer dimers limits quantitation at high cycle numbers. […] The raw results are expressed as number of cycles to reach the crossing point. If the desired product is not detected, the corresponding value is adjusted to crossing points indicating no expression. To assess the contribution of experimental artifacts, selected cell lines are assessed in replicate. […]

[2] = molecular target: ABCB1 (Homo sapiens, UniProt P08183); experiment: Correlation of ABCB1 expression with drug sensitivity across the NCI-60
ABCB1, sequence (P08183 whole entry): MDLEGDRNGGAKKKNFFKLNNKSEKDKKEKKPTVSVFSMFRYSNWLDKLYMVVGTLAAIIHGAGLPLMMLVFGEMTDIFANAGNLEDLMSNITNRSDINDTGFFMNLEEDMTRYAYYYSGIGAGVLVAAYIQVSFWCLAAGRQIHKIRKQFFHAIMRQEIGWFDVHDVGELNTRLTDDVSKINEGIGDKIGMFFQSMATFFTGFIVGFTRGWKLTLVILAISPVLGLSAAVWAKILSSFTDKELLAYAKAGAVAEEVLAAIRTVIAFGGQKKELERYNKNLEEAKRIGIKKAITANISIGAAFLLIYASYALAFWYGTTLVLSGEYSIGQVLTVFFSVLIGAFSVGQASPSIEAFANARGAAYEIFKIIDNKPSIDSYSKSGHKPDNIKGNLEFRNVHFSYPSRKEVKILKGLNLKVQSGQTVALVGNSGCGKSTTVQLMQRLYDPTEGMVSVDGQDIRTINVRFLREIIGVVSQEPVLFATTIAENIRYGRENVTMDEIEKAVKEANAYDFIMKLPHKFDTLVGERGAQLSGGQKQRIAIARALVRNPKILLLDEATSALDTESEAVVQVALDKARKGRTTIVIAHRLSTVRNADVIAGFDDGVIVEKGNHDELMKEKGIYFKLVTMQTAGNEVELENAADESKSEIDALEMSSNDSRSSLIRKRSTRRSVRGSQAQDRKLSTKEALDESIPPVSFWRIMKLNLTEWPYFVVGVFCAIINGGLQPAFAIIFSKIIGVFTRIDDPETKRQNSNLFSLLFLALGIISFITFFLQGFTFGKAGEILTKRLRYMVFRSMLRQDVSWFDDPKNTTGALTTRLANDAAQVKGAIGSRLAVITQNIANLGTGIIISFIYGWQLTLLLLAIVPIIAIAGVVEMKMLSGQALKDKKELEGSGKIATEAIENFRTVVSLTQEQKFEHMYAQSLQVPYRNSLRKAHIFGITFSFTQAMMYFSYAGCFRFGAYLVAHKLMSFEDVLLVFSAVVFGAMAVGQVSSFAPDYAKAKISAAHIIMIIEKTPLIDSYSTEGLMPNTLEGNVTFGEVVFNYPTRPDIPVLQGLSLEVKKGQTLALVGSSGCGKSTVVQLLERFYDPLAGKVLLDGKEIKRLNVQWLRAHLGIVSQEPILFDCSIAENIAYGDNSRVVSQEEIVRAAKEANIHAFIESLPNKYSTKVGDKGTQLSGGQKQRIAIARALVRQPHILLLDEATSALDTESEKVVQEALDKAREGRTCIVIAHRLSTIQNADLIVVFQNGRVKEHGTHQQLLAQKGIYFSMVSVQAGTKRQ
Procedure, shortened: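 SYBR Green real-time RT-PCR on 150 ng total RNA with 250 nM primers: RT 20 min at 50 °C, then 45 cycles; expression taken as crossing-point cycle number. Correlated with drug sensitivity of 1429 compounds across the cell panel; permutation p-values with step-down and step-up (FDR q-value) multiple-testing correction.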

[3] = molecular target: T2, ABCD1 (Homo sapiens, UniProt P33897); experiment: Correlation of ABCD1 expression with drug sensitivity across the NCI-60; type: cell-based; details: Pearson correlation of ABCD1 expression with sensitivity of the 60 cell lines; 1429 compounds; inverse, p < 0.0001
T2 construct: profiled in 60 diverse cancer cell lines (the NCI-60) using real-time RT-PCR; endogenous in cells; host or cells: NCI-60 human cancer cell lines
T2 sequence (P33897 whole entry): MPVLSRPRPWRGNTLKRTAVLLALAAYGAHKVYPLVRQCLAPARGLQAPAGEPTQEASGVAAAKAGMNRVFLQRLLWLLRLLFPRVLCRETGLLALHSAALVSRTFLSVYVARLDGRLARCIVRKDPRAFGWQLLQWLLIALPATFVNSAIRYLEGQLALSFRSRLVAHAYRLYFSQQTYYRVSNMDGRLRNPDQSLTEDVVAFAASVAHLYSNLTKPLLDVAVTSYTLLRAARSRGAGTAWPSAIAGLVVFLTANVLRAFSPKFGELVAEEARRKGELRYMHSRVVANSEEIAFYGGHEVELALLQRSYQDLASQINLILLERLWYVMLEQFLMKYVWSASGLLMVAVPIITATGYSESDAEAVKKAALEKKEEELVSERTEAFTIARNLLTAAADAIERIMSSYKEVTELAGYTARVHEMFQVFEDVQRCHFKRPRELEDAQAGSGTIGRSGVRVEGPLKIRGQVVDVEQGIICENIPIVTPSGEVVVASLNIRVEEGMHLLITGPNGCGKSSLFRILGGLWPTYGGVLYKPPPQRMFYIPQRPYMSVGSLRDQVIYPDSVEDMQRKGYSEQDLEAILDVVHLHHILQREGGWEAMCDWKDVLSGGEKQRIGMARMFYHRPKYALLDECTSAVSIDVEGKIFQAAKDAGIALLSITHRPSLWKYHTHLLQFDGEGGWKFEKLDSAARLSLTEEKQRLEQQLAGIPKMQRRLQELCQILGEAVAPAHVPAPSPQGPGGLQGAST
Description: as §2
RT-PCR is carried out on 150 ng total RNA, in the presence of 250 nM specific primers. Following reverse transcription (20 min at 50° C.), the PCR reaction consists of 45 cycles of denaturation (15 sec at 95° C.), annealing (30 sec at 58° C.), and elongation (30 sec at 72° C.). No-template (water) reaction mixtures are prepared as negative controls.
During PCR amplification, fluorescence emission is measured and recorded in real time by the LightCycler. Crossing point values are calculated, using the LightCycler software package, by the Fit Points analysis method, with baseline fluorescence set at 1. The SyberGreen assay measures accumulation of double-stranded products, and the appearance of primer dimers limits quantitation at high cycle numbers. The specificity of amplified products is verified by melting-curve analysis and agarose gel electrophoresis (not shown). The raw results are expressed as number of cycles to reach the crossing point. If the desired product is not detected, the corresponding value is adjusted to crossing points indicating no expression. To assess the contribution of experimental artifacts, selected cell lines are assessed in replicate.
The two are combined to form a joint dataset that includes 1429 compounds.
To determine quantitatively how well the 47 genes cluster the cell lines by their tissues of origin, a statistical method is employed wherein the kappa statistic is used to indicate how well the observed clusters correspond to the nine tissue-of-origin classifications. […] To control the overall false type 1 error rate, both a step-down procedure (Westfall and Young, 1993, Resampling-Based Multiple Testing: Examples and Methods for p-value Adjustment (New York: Wiley)) and a step-up procedure (Reiner et al., 2003, Bioinformatics 19:368-375) were employed to adjust for multiple testing of all 47 genes simultaneously. In the Benjamini-Hochberg procedure the p-values are computed in the standard way by permutation, assuming that all distributions are exchangeable: the number of values in the permuted data with correlations over a threshold, divided by the number of compounds and by the number of permutations. In this analysis, the False Discovery Rate (q-value) at which each compound would be declared was calculated using the step-up procedure for positively correlated test statistics (again true because all correlations being compared are computed against the same ABC gene): in this procedure the first q-value for the largest correlation is the Bonferroni-corrected p-value for that gene; then further q-values are calculated as qj=max(pj*1429/j, qj-1). This procedure limits the expected proportion of false positives in the list 1, . . . , j to at most qj.

[4] = molecular target: T3, ABCF1 (Homo sapiens, UniProt Q8NE71); experiment: Correlation of ABCF1 expression with drug sensitivity across the NCI-60; type: cell-based; details: Pearson correlation of ABCF1 expression with sensitivity of the 60 cell lines; 1429 compounds; inverse, p < 0.0001
T3 construct: endogenous in cells; host or cells: NCI-60 human cancer cell lines
Description: (§5) Expression levels are measured by real-time quantitative RT-PCR using the LightCycler RNA Amplification SYBR Green kit and a LightCycler machine (Roche Biochemicals, Indianapolis, Ind.). Specific oligonucleotide probes are designed for each of the ABC transporters using DNAStar Primer Select (DNASTAR Inc.), and they may be synthesized at Lofstrand Laboratories (Gaithersburg, Md.). When possible, the amplicons are designed to encompass exon-intron boundaries to avoid amplification of genomic DNA. Since the Syber Green assay detects accumulation of double stranded DNA, primers are selected (from a battery consisting of about 200 primers) that amplified a single product of the correct size. […]
as §4

[5] = molecular target: T4, ABCB3 (Homo sapiens, UniProt Q03519); experiment: Correlation of ABCB3 expression with drug sensitivity across the NCI-60; type: cell-based; details: Pearson correlation of ABCB3 expression with sensitivity of the 60 cell lines; 1429 compounds; inverse, p < 0.0001
T4 construct: profiled in 60 diverse cancer cell lines (the NCI-60) using real-time RT-PCR; endogenous in cells; host or cells: NCI-60 human cancer cell lines
Description: as §2, §3
During PCR amplification, fluorescence emission is measured and recorded in real time by the LightCycler. Crossing point values are calculated, using the LightCycler software package, by the Fit Points analysis method, with baseline fluorescence set at 1. The SyberGreen assay measures accumulation of double-stranded products, and the appearance of primer dimers limits quantitation at high cycle numbers. […] The raw results are expressed as number of cycles to reach the crossing point. If the desired product is not detected, the corresponding value is adjusted to crossing points indicating no expression. To assess the contribution of experimental artifacts, selected cell lines are assessed in replicate.

[6] = molecular target: T5, ABCD4 (Homo sapiens, UniProt O14678); experiment: Correlation of ABCD4 expression with drug sensitivity across the NCI-60; type: cell-based; details: Pearson correlation of ABCD4 expression with sensitivity of the 60 cell lines; 1429 compounds; inverse, p < 0.0001
T5 construct: profiled in 60 diverse cancer cell lines (the NCI-60) using real-time RT-PCR; endogenous in cells; host or cells: NCI-60 human cancer cell lines
T5 sequence (O14678 whole entry): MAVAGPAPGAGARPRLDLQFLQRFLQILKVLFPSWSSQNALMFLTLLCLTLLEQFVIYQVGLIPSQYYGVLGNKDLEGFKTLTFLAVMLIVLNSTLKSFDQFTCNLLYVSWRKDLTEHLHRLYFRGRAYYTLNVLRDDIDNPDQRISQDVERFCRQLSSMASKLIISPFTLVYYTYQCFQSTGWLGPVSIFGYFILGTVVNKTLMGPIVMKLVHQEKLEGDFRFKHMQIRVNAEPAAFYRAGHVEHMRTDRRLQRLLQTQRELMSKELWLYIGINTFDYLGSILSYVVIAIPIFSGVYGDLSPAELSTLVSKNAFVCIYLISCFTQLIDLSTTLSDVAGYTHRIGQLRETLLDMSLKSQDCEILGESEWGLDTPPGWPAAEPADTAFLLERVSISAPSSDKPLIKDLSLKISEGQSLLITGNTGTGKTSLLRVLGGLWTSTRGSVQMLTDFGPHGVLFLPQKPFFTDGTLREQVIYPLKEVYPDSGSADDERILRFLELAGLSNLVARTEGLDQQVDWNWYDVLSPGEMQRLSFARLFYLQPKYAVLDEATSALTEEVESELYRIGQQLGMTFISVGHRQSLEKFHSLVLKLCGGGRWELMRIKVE
Description: as §5, §4

[7] = molecular target: T6, ABCC4 (Homo sapiens, UniProt O15439); experiment: Correlation of ABCC4 expression with drug sensitivity across the NCI-60; type: cell-based; details: Pearson correlation of ABCC4 expression with sensitivity of the 60 cell lines; 1429 compounds; inverse, p < 0.0001
T6 construct: profiled in 60 diverse cancer cell lines (the NCI-60) using real-time RT-PCR; endogenous in cells; host or cells: NCI-60 human cancer cell lines
Description: as §2, §3, §4

[8] = molecular target: T7, ABCB2 (Homo sapiens, UniProt Q03518); experiment: Correlation of ABCB2 expression with drug sensitivity across the NCI-60; type: cell-based; details: Pearson correlation of ABCB2 expression with sensitivity of the 60 cell lines; 1429 compounds; inverse, p < 0.0001
T7 construct: profiled in 60 diverse cancer cell lines (the NCI-60) using real-time RT-PCR; endogenous in cells; host or cells: NCI-60 human cancer cell lines
Description: as §5, §4

[9] = molecular target: T8, ABCG8 (Homo sapiens, UniProt Q9H221); experiment: Correlation of ABCG8 expression with drug sensitivity across the NCI-60; type: cell-based; details: Pearson correlation of ABCG8 expression with sensitivity of the 60 cell lines; 1429 compounds; inverse, p < 0.0001
T8 construct: endogenous in cells; host or cells: NCI-60 human cancer cell lines
Description: as §5, §4

[10] = molecular target: T9, ABCC9 (Homo sapiens, UniProt O60706); experiment: Correlation of ABCC9 expression with drug sensitivity across the NCI-60; type: cell-based; details: Pearson correlation of ABCC9 expression with sensitivity of the 60 cell lines; 1429 compounds; inverse, p < 0.0001
T9 construct: profiled in 60 diverse cancer cell lines (the NCI-60) using real-time RT-PCR; endogenous in cells; host or cells: NCI-60 human cancer cell lines
Description: as §2, §3, §4

[11] = tested on: KB-V1 cells (over-express MDR1-P-gp) vs parental KB-3-1 cells; experiment: MTT assay using the KB-3-1/KB-V1 cell pair; type: cell-based, human
Description: (§1) Cell survival is measured by the MTT (3-(4,5-Dimethylthiazol-2-yl)-2,5-diphenyltetrazolium) Assay. Cells are seeded in 100 μl medium at a density of 5000 cells/well in 96 well plates, and serially diluted drug (with or without 2 μM PSC 833) is added the following day in 100 μl medium to give the indicated final concentration. Cells are then incubated for 72 hrs at 37° C. in 5% CO2, and the MTT assay is performed according to the manufacturer's instructions (Molecular Probes, Eugene, Oreg.).
To test whether our approach using the NCI-60 does, in fact, identify new substrates, an MTT assay is used to test all top-scoring compounds that were available from DTP for follow-up experiments. KB-3-1, a human carcinoma cell line, and KB-V1, a multidrug resistant derivative of KB-3-1 that over-expresses MDR1-P-gp (Shen et al., 1986, J. Biol. Chem. 261:7762-7770), are used for the tests. […] This resistance of KB-V-1 cells is invariably reversible by PSC 833. The intrinsic fluorescence of one of the compounds, NSC 634791, allows for the measurement of the effect of MDR1 activity on its export from cells.

[12] = tested on: KB Hela cells expressing ABCB1(MDR1) under tetracycline control; experiment: MTT assay using HeLa-transfectants with human MDR1 under tetracycline control; type: cell-based; details: absence (On) or presence (Off) of 2 μg/ml tetracycline
Description: Panel A is a scatter plot showing positive correlation (r=+0.54; 95% confidence interval 0.259 to 0.713) of ABCB1 expression with sensitivity of the 60 cell lines to NSC 73306. […] Cells are grown in the absence (ABCB1(MDR1)-On) or presence (ABCB1(MDR1)-Off) of 2 μg/ml tetracycline for at least seven days before starting the MTT assay. Cell surface expression and function of ABCB1 (MDR1) are verified prior to the assay by staining with anti-MDR1 monoclonal antibody (MRK-16) and by a performing a functional assay based on MDR1-controlled accumulation of the fluorescent dye Calcein (Homolya et al., 1996, Br. J. Cancer 73:849-855). […] Values are means ±S.E. of triplicate measurements.
as §1, with “Oreg.). […]” for “Oreg.).”

[13] = tested on: MDR1 positive cells; experiment: Pretreatment of MDR1 positive cells with MDR1-potentiated compound (loss of MDR phenotype); type: cell-based
From the text: In another preferred embodiment, the invention relates to methods of inhibiting the development of a multidrug resistance phenotype in a cancer in a subject comprising administering an ABCB1 potentiated agent to the subject. As used herein, inhibiting the development of a multidrug resistant phenotype refers to both the inhibition of the initial onset of the phenotype or the inhibition of any further development of the multidrug phenotype. It is contemplated as part of the invention that the ABCB1 potentiated agent may be administered simultaneously with a chemotherapeutic agent that is a substrate of the ABCB1 transporter. It is understood as an aspect of the invention that such simultaneous administration refers to administration within the same general time period rather than at the same exact moment in time. Thus treatment with the ABCB1 potentiated compound and the chemotherapeutic agent may be on the same day or on different days, or in the same week or in different weeks. It is within the skill of the ordinary artisan to optimize a treatment schedule to maintain the therapeutic efficacy of the chemotherapeutic agent by administration of the ABCB1 potentiated compound to inhibit the development of drug resistance. MDR1-potentiated compounds may be used to prevent the emergence of drug resistance clones. […]

[14] = molecular target: MDR1 (Homo sapiens, UniProt P08183); experiment: Block of MDR1-mediated transport of other molecules; type: cell-based
[15] = molecular target: T10, ABCD3 (Homo sapiens, UniProt P28288); experiment: Correlation of ABCD3 expression with drug sensitivity across the NCI-60; type: cell-based; details: Pearson correlation of ABCD3 expression with sensitivity of the 60 cell lines; 1429 compounds; inverse, p < 0.0001
T10 construct: profiled in 60 diverse cancer cell lines (the NCI-60) using real-time RT-PCR; endogenous in cells; host or cells: NCI-60 human cancer cell lines
T10 sequence (P28288 whole entry): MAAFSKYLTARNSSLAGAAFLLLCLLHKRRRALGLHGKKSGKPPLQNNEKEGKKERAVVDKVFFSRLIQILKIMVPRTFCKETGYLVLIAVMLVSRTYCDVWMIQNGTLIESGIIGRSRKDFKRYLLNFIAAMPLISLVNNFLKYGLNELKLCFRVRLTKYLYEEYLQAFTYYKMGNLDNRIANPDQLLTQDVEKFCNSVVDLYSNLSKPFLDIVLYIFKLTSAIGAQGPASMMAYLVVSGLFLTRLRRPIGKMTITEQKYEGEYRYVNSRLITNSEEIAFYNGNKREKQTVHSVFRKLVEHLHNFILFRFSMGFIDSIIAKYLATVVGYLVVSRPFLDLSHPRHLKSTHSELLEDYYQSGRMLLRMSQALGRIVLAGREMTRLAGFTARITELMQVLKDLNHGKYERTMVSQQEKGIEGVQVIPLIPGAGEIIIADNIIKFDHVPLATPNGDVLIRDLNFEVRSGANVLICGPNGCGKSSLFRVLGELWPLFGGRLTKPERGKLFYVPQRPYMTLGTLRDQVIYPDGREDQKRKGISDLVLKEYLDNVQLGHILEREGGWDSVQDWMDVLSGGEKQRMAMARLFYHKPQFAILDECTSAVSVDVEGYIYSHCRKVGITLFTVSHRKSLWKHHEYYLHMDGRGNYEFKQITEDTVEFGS
Description: as §5, §4

[16] = molecular target: T11, ABCC8 (Homo sapiens, UniProt Q09428); experiment: Correlation of ABCC8 expression with drug sensitivity across the NCI-60; type: cell-based; details: Pearson correlation of ABCC8 expression with sensitivity of the 60 cell lines; 1429 compounds; inverse, p < 0.0001
T11 construct: profiled in 60 diverse cancer cell lines (the NCI-60) using real-time RT-PCR; endogenous in cells; host or cells: NCI-60 human cancer cell lines
Description: as §2, §3, §4

[17] = molecular target: T12, ABCC11 (Homo sapiens, UniProt Q96J66); experiment: Correlation of ABCC11 expression with drug sensitivity across the NCI-60; type: cell-based; details: after removal of the single, high-expressing cell line (T47D)
T12 construct: profiled in 60 diverse cancer cell lines (the NCI-60) using real-time RT-PCR; endogenous in cells; host or cells: NCI-60 human cancer cell lines
T12 sequence (Q96J66 whole entry): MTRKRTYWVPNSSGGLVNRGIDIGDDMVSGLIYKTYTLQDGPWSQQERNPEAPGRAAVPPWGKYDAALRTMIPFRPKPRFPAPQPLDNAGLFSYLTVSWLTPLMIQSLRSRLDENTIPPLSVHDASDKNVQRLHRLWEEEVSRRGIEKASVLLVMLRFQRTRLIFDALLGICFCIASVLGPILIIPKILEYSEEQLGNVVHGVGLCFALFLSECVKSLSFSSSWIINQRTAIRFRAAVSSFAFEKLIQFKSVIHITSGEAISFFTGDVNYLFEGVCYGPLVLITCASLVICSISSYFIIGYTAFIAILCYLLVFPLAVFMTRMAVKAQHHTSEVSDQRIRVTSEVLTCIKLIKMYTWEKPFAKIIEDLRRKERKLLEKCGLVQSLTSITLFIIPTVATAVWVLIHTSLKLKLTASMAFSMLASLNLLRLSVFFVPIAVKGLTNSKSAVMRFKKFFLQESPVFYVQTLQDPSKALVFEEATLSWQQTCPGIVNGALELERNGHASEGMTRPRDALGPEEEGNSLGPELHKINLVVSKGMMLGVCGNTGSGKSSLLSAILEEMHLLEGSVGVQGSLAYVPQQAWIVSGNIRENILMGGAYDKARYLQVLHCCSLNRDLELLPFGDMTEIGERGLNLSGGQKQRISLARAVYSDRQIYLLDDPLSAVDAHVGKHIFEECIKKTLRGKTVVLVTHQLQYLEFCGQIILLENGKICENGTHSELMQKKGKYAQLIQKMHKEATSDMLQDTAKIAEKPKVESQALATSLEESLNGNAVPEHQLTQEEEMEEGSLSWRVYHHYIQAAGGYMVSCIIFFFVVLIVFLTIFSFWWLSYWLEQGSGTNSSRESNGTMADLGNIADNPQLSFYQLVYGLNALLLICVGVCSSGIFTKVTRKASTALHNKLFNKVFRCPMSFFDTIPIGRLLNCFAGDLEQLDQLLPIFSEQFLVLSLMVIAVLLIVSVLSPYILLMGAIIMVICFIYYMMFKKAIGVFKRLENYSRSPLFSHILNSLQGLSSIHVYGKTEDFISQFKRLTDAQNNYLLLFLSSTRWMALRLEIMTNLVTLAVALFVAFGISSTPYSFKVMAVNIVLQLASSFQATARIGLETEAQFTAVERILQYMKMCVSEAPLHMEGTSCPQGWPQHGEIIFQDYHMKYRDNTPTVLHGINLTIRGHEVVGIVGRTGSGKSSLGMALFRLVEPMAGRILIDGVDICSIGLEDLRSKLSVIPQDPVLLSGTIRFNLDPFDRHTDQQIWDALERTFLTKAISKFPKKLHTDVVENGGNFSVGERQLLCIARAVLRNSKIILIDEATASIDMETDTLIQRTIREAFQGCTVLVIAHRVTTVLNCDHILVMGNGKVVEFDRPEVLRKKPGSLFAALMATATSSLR
Description: as §2, §3, §4

[18] = tested on: ABCC11-transfected LLC-PK1 cells; experiment: MTT assay, ABCC11-transfected vs sham-transfected LLC-PK1 cells; type: cell-based
Description: Panel A is a scatter plot showing the correlation (r) of ABCC11 expression with sensitivity of the 60 cells to NSC 671136 (r=−0.4; 99.99% two-tailed bootstrap confidence interval −0.6726 to −0.0141). […] Values are means ±S.E. of triplicate MTT assays.
as §1
One compound, NSC 671136 (shown in FIG. 5, Panel C), met the stringent bootstrap criterion for significant inverse correlation with the expression of ABCC11 in the 60 cell lines (FIG. 5, Panel A). An MTT assay was used to assess whether over-expression of ABCC11 can confer resistance to the NSC 671136 compound.

O=C1c2cccc3cc([N+](=O)[O-])cc(c23)C(=O)N1Nc1ccc([N+](=O)[O-])cc1[N+](=O)[O-] [NSC 679265]
Correlation [1]: −0.3298

N[C@H](C(=O)O)[C@@H]1CC(Cl)=NO1 [NSC 163501]
Pearson's Correlation Coeff [2]: 0.2122 | Correlation [3]: −0.4301 | Correlation [4]: −0.5274

CS(=O)(=O)c1cc(=O)c2ccccc2s1 [NSC 622282]
Correlation [5]: −0.4406

CC(=O)OC(C)(C)/C=C/C(=O)[C@](C)(O)[C@H]1[C@H](O)C[C@@]2(C)[C@@H]3CC=C4[C@@H](C=C(O)C(=O)C4(C)C)[C@]3(C)C(=O)C[C@]12C [NSC 106399]
Pearson's Correlation Coeff [2]: 0.1871 | Correlation [6]: −0.4232

CSCSCC(CO)NC(=O)/C=C\c1c(C)[nH]c(=O)[nH]c1=O (centres unmarked) [NSC 251820]
Correlation [7]: −0.4340

CC(C)C1=CC2=CC[C@@H]3[C@](C)(CCC[C@@]3(C)C(=O)O)[C@H]2CC1 [NSC 25149]
Correlation [8]: −0.3794

C=C1[C@@H](C)[C@H]2[C@H](Cc3ccccc3)NC(=O)[C@]23[C@H](OC(C)=O)/C=C/[C@@](C)(O)C(=O)[C@@H](C)C/C=C/[C@H]3[C@@H]1O [NSC 209835]
Correlation [9]: −0.4443

COc1cc2c(c(OC)c1OC)-c1cccc(=O)cc1C(NC(C)=O)CC2 (centres unmarked) [NSC 352277]
Correlation [10]: −0.3094

COc1ccc(NC(=S)N/N=C2\C(=O)Nc3c(Cl)cc(Cl)cc32)cc1 [NSC 73306]
Correlation of antiproliferative activity with ABCB1 expression [2]: 0.511 | Correlation [3]: −0.6029 | Effect of PSC 833 on the heightened sensitivity of KB-V1 cells ([11]; MTT assay with 2 μM PSC 833): completely reversed sensitivity; also recorded: completely abolished the heightened sensitivity | Sensitivity of KB-V1 cells relative to parental KB-3-1 (potentiation by ABCB1) ([11]; MTT assay, 72 hrs): four- to five-fold; also recorded: approximately four-fold | Sensitivity of MDR1-On cells relative to MDR1-Off cells [12]: two- to four-fold; also recorded: approximately two-fold | Drug sensitivity for non-MDR1 substrates after pretreatment ([13]; non-MDR1 substrates such as cisplatin and methotrexate): unchanged | Drug resistance to MDR1 substrates after pretreatment ([13]; pretreatment of MDR1 positive cells): almost complete elimination of drug resistance | Block of MDR1-mediated transport of other molecules [14]: does not block

O=c1[nH]cc(F)c(=O)[nH]1 [NSC 19893]
Correlation [15]: −0.4232

COc1cc2[nH]c3c(c2cc1OC)CCN[C@@]31CC[C@@]2(CC3c4c(cc(OC)c(O)c42)CCN3C)C[C@@H]1OC (some centres unmarked) [NSC 626578]
Correlation [16]: −0.4335

CC(=O)c1sc2c(c1OC(=O)c1ccc(Cl)cc1Cl)c(=O)n(-c1ccccc1)c(=S)n2-c1ccccc1 [NSC 671136]
Correlation (r) of ABCC11 expression with sensitivity [17]: −0.38 | Resistance of ABCC11-transfected LLC-PK1 cells relative to sham-transfected cells [18]: two- to three-fold

— patent US20080214606A1, “Methods for the Identification and Use of Compounds Suitable for the Treatment of Drug Resistant Cancer Cells” (The Government of the United States of America as …, priority 2004, published 2008)
